# Patent publication US20200291018A1, “TAM KINASE INHIBITORS” (SYROS PHARMACEUTICALS, INC., priority 2017, published 2020)
# Legend:
# AXL = target: T1, AXL (Homo sapiens, UniProt P30530); experiment: TR-FRET kinase activity assay, AXL; type: biochemical; conditions: ATP at Km, 60 minutes
# T1 sequence (P30530 26-894): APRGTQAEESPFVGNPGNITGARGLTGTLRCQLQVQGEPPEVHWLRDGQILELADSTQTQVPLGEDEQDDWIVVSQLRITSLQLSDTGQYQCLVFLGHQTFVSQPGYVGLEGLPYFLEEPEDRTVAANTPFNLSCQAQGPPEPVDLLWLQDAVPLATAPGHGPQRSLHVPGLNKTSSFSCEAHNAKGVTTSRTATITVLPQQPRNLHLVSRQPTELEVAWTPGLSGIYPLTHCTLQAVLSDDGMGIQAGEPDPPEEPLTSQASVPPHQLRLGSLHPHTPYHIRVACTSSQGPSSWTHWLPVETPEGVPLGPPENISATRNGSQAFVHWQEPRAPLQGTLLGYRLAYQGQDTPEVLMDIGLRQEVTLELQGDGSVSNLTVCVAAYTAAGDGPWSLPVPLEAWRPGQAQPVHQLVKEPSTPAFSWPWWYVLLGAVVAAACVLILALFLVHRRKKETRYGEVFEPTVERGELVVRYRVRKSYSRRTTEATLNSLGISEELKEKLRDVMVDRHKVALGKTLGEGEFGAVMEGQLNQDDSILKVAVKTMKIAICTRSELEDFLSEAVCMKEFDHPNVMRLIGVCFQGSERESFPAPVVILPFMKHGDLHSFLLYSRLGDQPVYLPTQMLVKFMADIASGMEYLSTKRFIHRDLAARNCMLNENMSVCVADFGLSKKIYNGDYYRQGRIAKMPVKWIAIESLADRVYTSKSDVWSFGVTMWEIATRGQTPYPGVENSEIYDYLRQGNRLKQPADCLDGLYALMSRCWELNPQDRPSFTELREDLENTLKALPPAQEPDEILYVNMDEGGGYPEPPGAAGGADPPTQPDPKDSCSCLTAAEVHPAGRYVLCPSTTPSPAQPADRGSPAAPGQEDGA
# Method in brief: (§1)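 IC50 came from TR-FRET signal after 30 min dark development with a Europium-labeled phospho-specific antibody. This followed a 60 min RT reaction, stopped with EDTA, started with ATP at Km per enzyme. Peptide substrate, enzyme and compound were premixed in HEPES pH 7.5 buffer with MgCl2, EGTA, Brij 35 and DTT.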
# FLT3 = target: T2, FLT3 (Homo sapiens, UniProt P36888); experiment: TR-FRET kinase activity assay, FLT3; type: biochemical; conditions: ATP at Km, 60 minutes
# T2 sequence (P36888 27-993): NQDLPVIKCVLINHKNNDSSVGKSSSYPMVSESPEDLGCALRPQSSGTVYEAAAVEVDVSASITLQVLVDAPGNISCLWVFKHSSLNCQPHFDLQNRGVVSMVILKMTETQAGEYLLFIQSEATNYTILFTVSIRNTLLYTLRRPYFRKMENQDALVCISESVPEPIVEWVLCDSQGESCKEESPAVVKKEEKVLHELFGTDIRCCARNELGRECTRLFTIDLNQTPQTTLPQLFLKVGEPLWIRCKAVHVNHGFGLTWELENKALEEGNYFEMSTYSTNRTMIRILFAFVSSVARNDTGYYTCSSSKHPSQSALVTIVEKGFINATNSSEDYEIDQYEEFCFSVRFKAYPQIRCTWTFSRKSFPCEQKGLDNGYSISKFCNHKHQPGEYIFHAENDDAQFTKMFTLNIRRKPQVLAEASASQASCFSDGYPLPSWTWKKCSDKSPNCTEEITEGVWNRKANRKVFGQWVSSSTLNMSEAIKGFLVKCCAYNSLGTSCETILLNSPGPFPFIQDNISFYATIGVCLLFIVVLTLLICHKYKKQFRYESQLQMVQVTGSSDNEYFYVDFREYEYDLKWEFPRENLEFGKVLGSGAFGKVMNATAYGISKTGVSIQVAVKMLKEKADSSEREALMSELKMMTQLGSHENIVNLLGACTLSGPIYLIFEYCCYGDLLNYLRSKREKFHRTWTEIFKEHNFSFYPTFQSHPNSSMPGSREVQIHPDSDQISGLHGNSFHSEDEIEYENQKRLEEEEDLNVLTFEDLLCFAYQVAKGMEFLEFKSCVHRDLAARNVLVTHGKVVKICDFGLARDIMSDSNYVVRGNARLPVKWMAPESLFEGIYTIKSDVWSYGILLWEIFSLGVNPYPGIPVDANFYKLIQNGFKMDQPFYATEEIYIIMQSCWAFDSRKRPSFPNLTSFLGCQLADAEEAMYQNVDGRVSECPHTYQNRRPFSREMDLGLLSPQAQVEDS
# Method in brief: as §1
compound,measurement,setting,value
C[C@@H](CC(F)F)Nc1ncc2c(O[C@H]3C[C@@H](O)C3)ncc([C@H]3CC[C@H](O)CC3)c2n1 [Compound 428],IC50,AXL,≤ 100 nM
same,IC50,FLT3,100 to 1000 nM
C[C@@H](CC(F)(F)F)Nc1ncc2c(O[C@H]3C[C@@](C)(O)C3)ncc([C@H]3CC[C@H](O)CC3)c2n1 [Compound 429],IC50,AXL,≤ 100 nM
same,IC50,FLT3,100 to 1000 nM
